Laboratory results from patent US20260201420A1, “HOMOLOGY-INDEPENDENT TARGETED DNA INSERTION IN HUMAN T CELLS” (The Board of Trustees of The Leland Stanford Junior …, priority 2022, published 2026).

Legend:
primary human T cells [1] = assay: CRISPR knock-in of GD2-CAR into TRAC in activated T cells (HDR vs HITI plasmid templates), flow cytometry and cell counts; type: cell-based; details: for knock-in frequencies (mean frequencies): GD2-CAR into TRAC, activated T cells electroporated day 2, flow cytometry day 10, n=4 donors
Description: (§1) Fresh Leukopaks were obtained from STEMCELL Technologies and processed for negative selection using the EasySep Human T Cell Isolation Kit. Cells were activated using Dynabeads Human T-Activator CD3/CD28 (Thermo Fisher) at a 1:1 ratio and cultivated in TexMACS media supplemented with human IL-7 at 12.5 ng/ml and IL-15 at 12.5 ng/ml (all Miltenyi Biotec) as well as 3% human male AB Serum (Access Cell Culture). The culture volume was expanded over time to maintain cells at a concentration of ^~1.5×10^6/ml using G-Rex 24-well and 6-well plates or G-Rex 100M according to manufacturer's instructions (Wilson-Wolf). Small molecule inhibitors AZD0156 (Selleck Chemicals) and Methotrexate (Sigma Aldrich) were resuspended in DMSO and added to the cell culture media as indicated.
Plasmid DNA was optimized for gene therapeutic application and consisted of two components: R6K origin of replication and an anti-Levansucrase antisense RNA to allow for an antibiotic-free selection. This ^~430 bp backbone prevents transgene silencing after genomic insertion^40,43,44. Knock-In templates were synthesized at Genscript and flanking cut sites for NheI and KpnI were used to clone synthetic genes into plasmid backbones. To introduce RNP cut sites within the plasmid DNA, the genomic target of the respective RNP was included into the above mentioned synthetic gene.
(§2) On day 2, unless otherwise indicated, Dynabeads were magnetically removed and cells were counted prior to electroporation on the Maxcyte GTx. For electroporation cells were washed once in Electroporation Buffer (Maxcyte) and then resuspended at 2×10^8/ml for small scale experiments or in 2.4 ml for large-scale electroporation. Wildtype Cas9 (61 μM, IDT) and sgRNA (125 μM, IDT) were mixed vol 1:1 resulting in a molar ratio of 2:1 and incubated for 10 min. at room temperature. Hereafter indicated amounts of plasmid DNA (3 mg/ml) were added to the RNP and incubated for at least 10 min. to allow the RNP to cut the plasmid DNA. For small-scale experiments 5×10^6 T cells were resuspended in 25 μl and 1.25 μl of RNP and respective amounts of plasmid DNA were added. Cells were then transferred into OC-25×3 processing assemblies and electroporated using the Expanded T cell 4 protocol for activated T cells or the Resting T cell 14-3 protocol for electroporation of non-activated T cells, which were stimulated after electroporation with Dynabeads at a 1:1 ratio. Small scale experiments for GPC2 CAR knock-in were conducted using the OC100×2 processing assembly with a final reaction volume of 100 μl. For large scale experiments the GMP compatible CL1.1 assembly was used. Post electroporation cells were rested in electroporation buffer either in the processing assembly (OC-25×3, OC-100×2) or in G-Rex 6-well plates (CL1.1) for 30 min. before being transferred into final G-Rex vessels.
(§3) Cell counts and Viability were obtained using the Nexcelom Cellometer Auto 2000. Samples were mixed with AO/PI dye at a 1:1 volume ratio and then analyzed using the setting Immune Cells—Low RBC.
(§4) For GD2-CAR and GPC2-CAR detection, an anti-14g2a idiotype or recombinant human Glypican-2 protein (R&D systems) were fluorescently labeled with the DyLight 650 Microscale Antibody Labeling kit (Thermo Fisher). For intracellular staining CAR+ T cells were co-cultured with respective tumor cell lines at a 1:4 ratio. Prior to co-cultivation the protein transport inhibitor Monensin (BD) and the anti-CD107a antibody (Biolegend) were added to T cell samples. […]

primary human T cells [2] = assay: Titration of MTX in primary human T cells; type: cell-based
Description: as §1
To enable enrichment of the desired CAR+ knock-in population we optimized CEMENT based selection by comparing three different clinically relevant enrichment markers: Dihydrofolate Reductase^L22F/F31S (DHFR-FS), truncated Epidermal Growth Factor Receptor (tEGFR), and truncated Nerve Growth Factor Receptor (tNGFR)^9,17,33. All three enrichment markers were successfully co-inserted along with the GD2-CAR resulting in total transgene sizes of ^~2.5-3 kb. CRISPR knock-in CAR-T cells were either enriched using the FDA approved drug MTX which was diluted from a 10 mM stock in media to result in a 50 nM final concentration. […]

primary human T cells [3] = assay: HITI/CEMENT knock-in CAR-T cell manufacturing at clinical scale; type: cell-based; details: end of MTX treatment (day 7), 50 nM
Description: as §1
On day 2, unless otherwise indicated, Dynabeads were magnetically removed and cells were counted prior to electroporation on the Maxcyte GTx. For electroporation cells were washed once in Electroporation Buffer (Maxcyte) and then resuspended at 2×10^8/ml for small scale experiments or in 2.4 ml for large-scale electroporation. […]
Cell counts and Viability were obtained using the Nexcelom Cellometer Auto 2000. Samples were mixed with AO/PI dye at a 1:1 volume ratio and then analyzed using the setting Immune Cells—Low RBC. […]

TRAC = assay: IN&OUT PCR and Sanger sequencing of knock-in junctions; set-up: species or system human; details: IN&OUT PCR, Sanger sequencing
Description: Genomic DNA was extracted using the PureLink Genomic DNA Mini Kit (Invitrogen). Primers flanking the insertion sites of HITI1c and binding outside the respective homology arm sequence of HDR2c as well as primers binding within the inserted sequences were designed using Primer3Plus (www.primer3plus.com). Phusion Hot Start Flex 2× Mastermix (NEB) was used to amplify genomic regions of interest and DNA gel electrophoresis was conducted using the E-Gel Power Snap System (Thermo Scientific). Samples were shipped to ELIM BIOPHARM for Sanger sequencing. Sequences were aligned for analysis using snapgene.

non-activated T cells = assay: CRISPR knock-in of GD2-CAR in non-activated T cells; type: cell-based, human; details: HITI1c vs HDR2c, day 10
Description: as §2, §3
as §4, with “ratio.” for “ratio. Prior to co-cultivation the protein transport inhibitor Monensin (BD) and the anti-CD107a antibody (Biolegend) were added to T cell samples.”

primary human T cells [4] = assay: HDR inhibitor (AZD0156) modulation of GD2-CAR integration via HITI and HDR; type: cell-based
Description: as §1
as §2, with “Post electroporation cells were rested in electroporation buffer either in the processing assembly (OC-25×3, OC-100×2) or in G-Rex 6-well plates (CL1.1) for 30 min. before being transferred into final G-Rex vessels.” left out

Molecule: HITI2c: Knock-In template plasmid, two cut sites: cut_site-EFS-Signalpeptide-14g2a-CD8TM-4-1BB-CD3z-STOP-bGH_ployA-cut_site (SEQ ID NO: 4)
- knock-in frequencies (mean frequencies) (primary human T cells [1]): 9.3%

Molecule: CN(Cc1cnc2nc(N)nc(N)c2n1)c1ccc(C(=O)N[C@@H](CCC(=O)O)C(=O)O)cc1 [MTX, methotrexate]
- concentration from which efficient killing occurs (primary human T cells [2]; n=2 donors, technical duplicates): ≥ 50 nM
- concentration at which MTX exerts cytostatic effects in dividing T cells (primary human T cells [2]; primary human T cells post activation): 50 nM
- effects of MTX on viability of edited vs. non-edited T cells (primary human T cells [3]): only non-edited cells were compromised in their viability

Molecule: HITI1c: Knock-In template plasmid, one cut site: cut_site-EFS-Signalpeptide-14g2a-CD8TM-4-1BB-CD3z-STOP-bGH_ployA (SEQ ID NO: 3)
- knock-in frequencies (mean frequencies) (primary human T cells [1]): 15.7%
- GD2-CAR T cell yields, HITI vs HDR (primary human T cells [1]; HITI1c vs HDR2c, day 10, average): ~ 3 fold
- GD2-CAR T cell yield, one cut site vs two cut sites (primary human T cells [1]; HITI1c vs HITI2c, day 10): ~ 6 fold
- insertion rates, HITI1c vs HDR2c (primary human T cells [1]; activated T cells, day 10): comparable
- Indels at both junctions of integrated plasmid construct (TRAC): 6 bp
- CAR+ T cell yield in non-activated T cells (non-activated T cells): higher
- insertion rates in non-activated T cells (non-activated T cells): higher
- viability in non-activated T cells (non-activated T cells): higher

Molecule: CN(C)CCCOc1ccc(-c2ccc3ncc4c(c3c2)n(C2CCOCC2)c(=O)n4C)cn1 [AZD0156]
- knock-in efficiency of HDR2c when AZD0156 was added (primary human T cells [4]; HDR2c template, 18 hours treatment post electroporation, vs untreated): decreased knock-in efficiency
- insertion rates for HITI1c when AZD0156 was added (primary human T cells [4]; HITI1c template, 18 hours treatment post electroporation, vs untreated): higher insertion rates
- GD2-CAR T cell yields in HITI1c samples after AZD0156 treatment (primary human T cells [4]; compared to untreated controls): decreased GD2-CAR T cell yields
